Test results published in ChEMBL document CHEMBL1131184, “Novel CDC25A phosphatase inhibitors from pyrolysis of 3-alpha-azido-B-homo-6-oxa-4-cholesten-7-one on silica gel” (J Med Chem, 1998).
pIC50: −log10 of the molar value.

Biological target: T1, M-phase inducer phosphatase 1 (Homo sapiens, UniProt P30304)
T1 sequence (P30304 whole entry): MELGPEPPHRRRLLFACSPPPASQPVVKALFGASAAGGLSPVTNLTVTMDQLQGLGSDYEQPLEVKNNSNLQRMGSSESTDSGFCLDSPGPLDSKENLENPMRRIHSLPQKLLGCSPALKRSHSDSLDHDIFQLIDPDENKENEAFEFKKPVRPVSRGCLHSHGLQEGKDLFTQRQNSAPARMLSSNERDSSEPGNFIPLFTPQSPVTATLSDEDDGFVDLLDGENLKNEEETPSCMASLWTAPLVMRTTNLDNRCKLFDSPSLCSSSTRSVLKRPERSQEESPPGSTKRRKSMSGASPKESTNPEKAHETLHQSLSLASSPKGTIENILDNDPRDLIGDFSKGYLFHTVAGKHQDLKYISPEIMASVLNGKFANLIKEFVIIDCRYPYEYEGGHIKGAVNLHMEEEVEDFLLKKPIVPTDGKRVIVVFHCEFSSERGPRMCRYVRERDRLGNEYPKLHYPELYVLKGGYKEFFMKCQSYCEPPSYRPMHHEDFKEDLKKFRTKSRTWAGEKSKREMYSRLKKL
Assay: Compound was evaluated for the inhibition of Cdc25A phosphatase by using fluorescein diphosphate as substrate

| SMILES | pIC50 |
| --- | --- |
| CC(C)CCCC(C)[C@H]1CC[C@H]2[C@@H]3CC(=O)O[C@](C)(CC/C=C\C#N)[C@H]3CC[C@]12C (stereo not given in full) | < 4.30 |
| C=C(CCCCC#N)[C@H]1CC[C@]2(C)[C@@H]([C@H](C)CCCC(C)C)CC[C@H]2[C@@H]1CC(=O)O | 5.66 |
| C/C(=C\C/C=C\C#N)[C@H]1CC[C@]2(C)[C@@H](C(C)CCCC(C)C)CC[C@H]2[C@@H]1CC(=O)O (stereo not given in full) | 4.62 |
| CC(C)CCCC(C)[C@H]1CC[C@H]2[C@@H]3CC(=O)O[C@@](C)(CC/C=C\C#N)[C@H]3CC[C@]12C (stereo not given in full) | 4.88 |
| C=C(CC/C=C\C#N)[C@H]1CC[C@]2(C)[C@@H](C(C)CCCC(C)C)CC[C@H]2[C@@H]1CC(=O)O (stereo not given in full) | 5.01 |
